These results are taken from patent publication US20040018579A1, “Dye-labelled peptide and method” (priority 2000, published 2004).

No end group written: not given here. Cy5Q = cyanine dye quencher coupled to the N-terminus (from Cy5Q-NHS)

In this experiment the test system is AspN. The experiment is described as follows: Endoproteinase AspN cleavage assay. The experiment is classed as biochemical. The note with it: 2 μM, 500 μl, AspN 100 ng, overnight at ambient temperature, excitation 520 nm, emission 540-750 nm. How it is done:
The fluorescence intensity of compound A (2 μM, 500 μl volume) in a quartz cuvette was recorded using a spectrofluorimeter. The sample was excited at 520 nm and emission over 540-750 nm recorded. AspN (100 ng, 50 μl volume) was added to the sample in the cuvette, which was stoppered, and kept dark at ambient temperature overnight. The fluorescence intensity was again recorded. […] Tween™ is a trademark of ICI Americas, Inc.

As for “Cy5Q -Asp-Glu-Val-Asp-Arg-Ser-Gly-Ser-Gly-Ser-Cy3-Ala-Leu-Thr-OH (Cy5Q-DEVDRSGSGS; not fully specified (C-terminus)) [Compound A]”, the “Cy3 fluorescence on AspN-catalysed hydrolysis” value is “increase in Cy3 fluorescence”.
